Activity data for one compound are collected here from ChEMBL document CHEMBL3044878, “The interference between metformin treatment and TSH level in euthyroid type 2 diabetic patients” (Med Chem Res, 2013).

The source made the active and inactive calls. No cut-off for these calls is given here.

Common to all, as to assay type: functional, organism-based
The species entered for test [1] is Homo sapiens. Kind of test: Effect on TSH level in diabetic non-obese pateint by ELISA relative to untreated healthy control.
The species named for test [2] is Homo sapiens. Kind of test: Effect on FT4 level in diabetic non-obese pateint by ELISA relative to untreated obese insulin-resistant control.
Test [3] is filed under the species Homo sapiens. In words: Effect on TSH level in diabetic obese pateint by ELISA relative to untreated healthy control.
For test [4], the species on record is Homo sapiens. Kind of test: Decrease in TSH level in diabetic non-obese pateint by ELISA relative to untreated obese insulin-resistant control.
Test [5] is filed under the species Homo sapiens. In words: Effect on FT4 level in diabetic obese pateint by ELISA relative to untreated obese insulin-resistant control.
The species named for test [6] is Homo sapiens. Kind of test: Effect on FT4 level in diabetic obese pateint by ELISA relative to untreated healthy control.
Test [7] is filed under the species Homo sapiens. In words: Effect on FT4 level in diabetic non-obese pateint by ELISA relative to untreated healthy control.

For the compound `CN(C)C(=N)NC(=N)N`, the result in test [1], in test [2], in test [3], in test [5], in test [6] and in test [7] was inactive. Besides, in test [4], the outcome was Active.
